Test results: ChEMBL document CHEMBL1921760, “Design, synthesis and biological evaluation of 6-pyridylmethylaminopurines as CDK inhibitors” (Bioorg Med Chem, 2011)

Columns and labels:
[1] = Inhibition of PKA
[2] = tested on: A2780; experiment: Growth inhibition of cisplatin-susceptible human A2780 cells after 96 hrs by sulforhodamine B assay; assay type: functional; details: A2780, 96 h
[3] = tested on: A2780; experiment: Growth inhibition of cisplatin-resistant human A2780 cells after 96 hrs by sulforhodamine B assay; assay type: functional; details: A2780, 96 h
[4] = tested on: CH1; experiment: Growth inhibition of doxorubicin-susceptible human CH1 cells after 96 hrs by sulforhodamine B assay; assay type: functional; details: CH1, 96 h
[5] = tested on: HCT-116; experiment: Growth inhibition of human HCT116 cells after 96 hrs by sulforhodamine B assay; assay type: functional; details: HCT-116, 96 h
[6] = tested on: HT-29; experiment: Growth inhibition of human HT-29 cells after 96 hrs by sulforhodamine B assay; assay type: functional; details: HT-29, 96 h
[7] = tested on: KM12; experiment: Growth inhibition of human KM12 cells after 96 hrs by sulforhodamine B assay; assay type: functional; details: KM12, 96 h
[8] = Metabolic stability in mouse liver microsomes assessed as compound metabolized at 10 uM after 30 mins by LC-MS analysis; assay type: ADME, Microsome; details: read-out: Activity
[9] = tested on: CH1; experiment: Growth inhibition of doxorubicin-resistant human CH1 cells after 96 hrs by sulforhodamine B assay; assay type: functional; details: CH1, 96 h
[10] = target: Cyclin-dependent kinase 4/cyclin D1 (Homo sapiens, UniProt P11802); experiment: Inhibition of CDK4/cyclin D1; assay type: protein-complex assay
[11] = target: Cyclin-dependent kinase 7/ cyclin H (Homo sapiens, UniProt P50613); experiment: Inhibition of CDK7/cyclin H; assay type: protein-complex assay
[12] = target: Cyclin-dependent kinase 1/cyclin B1 (Homo sapiens, UniProt P06493); experiment: Inhibition of CDK1/cyclin B; assay type: protein-complex assay
Chain of Cyclin-dependent kinase 1/cyclin B1 (P06493 whole entry): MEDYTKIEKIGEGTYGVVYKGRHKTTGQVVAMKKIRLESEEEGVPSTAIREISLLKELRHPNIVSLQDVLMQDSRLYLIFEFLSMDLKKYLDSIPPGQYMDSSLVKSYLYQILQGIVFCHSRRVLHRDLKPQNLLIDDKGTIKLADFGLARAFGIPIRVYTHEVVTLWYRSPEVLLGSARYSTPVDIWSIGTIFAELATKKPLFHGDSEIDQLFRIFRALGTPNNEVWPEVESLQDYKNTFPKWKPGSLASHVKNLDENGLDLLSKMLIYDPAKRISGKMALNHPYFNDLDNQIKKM
Chain of Cyclin-dependent kinase 1/cyclin B1 (P14635 whole entry, further chain): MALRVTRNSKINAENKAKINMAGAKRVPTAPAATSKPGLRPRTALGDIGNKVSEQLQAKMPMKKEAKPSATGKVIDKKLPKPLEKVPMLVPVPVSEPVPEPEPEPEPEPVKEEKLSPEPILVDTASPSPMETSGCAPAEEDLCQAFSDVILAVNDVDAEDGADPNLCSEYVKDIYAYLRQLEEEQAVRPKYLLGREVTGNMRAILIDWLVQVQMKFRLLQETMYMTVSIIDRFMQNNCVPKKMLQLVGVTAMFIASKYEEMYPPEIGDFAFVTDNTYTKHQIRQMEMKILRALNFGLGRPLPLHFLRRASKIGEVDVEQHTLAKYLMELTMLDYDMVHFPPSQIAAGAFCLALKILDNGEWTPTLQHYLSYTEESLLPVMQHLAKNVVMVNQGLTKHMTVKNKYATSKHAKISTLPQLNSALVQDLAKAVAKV

Chain of Cyclin-dependent kinase 7/ cyclin H (P51946 whole entry): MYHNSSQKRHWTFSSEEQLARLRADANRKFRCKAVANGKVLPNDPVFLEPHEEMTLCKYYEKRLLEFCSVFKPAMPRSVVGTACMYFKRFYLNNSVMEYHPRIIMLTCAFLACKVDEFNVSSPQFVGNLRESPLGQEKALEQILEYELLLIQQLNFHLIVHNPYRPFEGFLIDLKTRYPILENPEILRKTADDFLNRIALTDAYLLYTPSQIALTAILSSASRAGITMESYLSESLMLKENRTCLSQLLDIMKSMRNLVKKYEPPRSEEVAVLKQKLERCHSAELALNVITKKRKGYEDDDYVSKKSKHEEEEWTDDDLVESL
Chain of Cyclin-dependent kinase 7/ cyclin H (P50613 whole entry): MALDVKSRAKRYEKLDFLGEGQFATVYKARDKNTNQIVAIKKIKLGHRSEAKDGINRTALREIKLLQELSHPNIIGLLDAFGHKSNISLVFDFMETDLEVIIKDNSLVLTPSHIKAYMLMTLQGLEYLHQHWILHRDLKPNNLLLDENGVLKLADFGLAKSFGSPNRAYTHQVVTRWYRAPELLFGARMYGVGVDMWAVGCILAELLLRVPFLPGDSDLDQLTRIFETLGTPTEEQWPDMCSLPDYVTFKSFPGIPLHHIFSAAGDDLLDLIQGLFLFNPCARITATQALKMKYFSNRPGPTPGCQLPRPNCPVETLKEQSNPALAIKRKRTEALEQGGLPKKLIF
Chain of Cyclin-dependent kinase 4/cyclin D1 (P11802 whole entry): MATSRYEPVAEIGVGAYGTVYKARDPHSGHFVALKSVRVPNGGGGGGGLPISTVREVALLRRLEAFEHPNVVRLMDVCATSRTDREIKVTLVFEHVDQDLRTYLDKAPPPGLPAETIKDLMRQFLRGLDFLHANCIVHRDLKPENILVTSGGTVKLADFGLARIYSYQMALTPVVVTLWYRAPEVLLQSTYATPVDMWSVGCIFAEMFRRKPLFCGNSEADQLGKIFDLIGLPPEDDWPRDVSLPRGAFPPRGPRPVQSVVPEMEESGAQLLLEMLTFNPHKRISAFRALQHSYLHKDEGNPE
Chain of Cyclin-dependent kinase 4/cyclin D1 (P24385 whole entry, further chain): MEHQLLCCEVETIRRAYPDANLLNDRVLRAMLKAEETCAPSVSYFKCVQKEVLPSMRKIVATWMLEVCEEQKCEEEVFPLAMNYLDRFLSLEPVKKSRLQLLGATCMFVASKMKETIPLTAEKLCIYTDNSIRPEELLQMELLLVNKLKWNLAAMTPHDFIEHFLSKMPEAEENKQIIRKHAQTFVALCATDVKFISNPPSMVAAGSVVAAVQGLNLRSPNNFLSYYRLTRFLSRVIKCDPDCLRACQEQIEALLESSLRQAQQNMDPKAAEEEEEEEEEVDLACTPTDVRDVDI

Row | Structure (SMILES) | IC50 [1] [µM] | GI50 [2] [µM] | GI50 [3] [µM] | GI50 [5] [µM] | GI50 [6] [µM] | metabolised at 0.5 h, 10 µM [8] [%] | IC50 [10] [µM] | IC50 [11] [µM] | IC50 [12] [µM] | GI50 [4] [µM] | GI50 [7] [µM] | GI50 [9] [µM]
1 | CC[C@H](CO)Nc1nc(NCc2ccncc2)c2ncn(C(C)C)c2n1 | > 50 | 23 | 22 | 10 | 23 | 3 | – | – | – | 8.2 | 7 | –
2 | CC[C@H](Nc1nc(NCc2ccccc2)c2ncn(C(C)C)c2n1)C(C)(C)O | 200 | 16 | 22 | 16 | 23 | 73 | – | – | – | 22 | 20 | –
3 | CCC(O)[C@H](CC)Nc1nc(NCc2ccccc2)c2ncn(C(C)C)c2n1 (mixture of isomers) | > 200 | 16 | 21 | 20 | 23 | 67 | 20 | 1.1 | – | – | 27 | –
4 | CC[C@@H](Nc1nc(NCc2ccccn2)c2ncn(C(C)C)c2n1)C(O)C(C)(C)C (mixture of isomers) | > 200 | 23 | > 50 | 29 | 34 | 93 | – | – | 200 | 34 | 45 | 27
5 | CC[C@H](CO)Nc1nc(NCc2ccccn2)c2ncn(C(C)C)c2n1 | > 50 | 21.5 | 28 | 26 | 54 | – | 3.8 | 0.04 | – | 26 | 38 | 23
6 | CC[C@@H](Nc1nc(NCc2ccccn2)c2ncn(C(C)C)c2n1)C(C)(C)O | > 200 | 34 | > 50 | > 50 | > 50 | 73 | – | – | – | > 50 | > 50 | > 50
7 | CC[C@@H](Nc1nc(NCc2ccccc2)c2ncn(C(C)C)c2n1)C(C)(C)O | 191 | 15 | 23 | 20 | 23 | 52 | – | – | – | 23 | 21 | 19.5
8 | CCC(O)[C@@H](CC)Nc1nc(NCc2ccccc2)c2ncn(C(C)C)c2n1 (mixture of isomers) | 139 | 14.5 | 21 | 26 | 23 | 63 | – | – | – | 23 | 23 | 18

Now from value to compound, other results behind:

Row | IC50 [1] [µM] | GI50 [2] [µM] | GI50 [3] [µM] | GI50 [5] [µM] | GI50 [6] [µM] | metabolised at 0.5 h, 10 µM [8] [%] | IC50 [10] [µM] | IC50 [11] [µM] | IC50 [12] [µM] | Structure (SMILES) | GI50 [4] [µM] | GI50 [7] [µM] | GI50 [9] [µM]
9 | > 200 | 40 | > 50 | > 50 | > 50 | 94 | – | – | – | CC[C@@H](Nc1nc(NCc2ccccn2)c2ncn(C(C)C)c2n1)C(O)C(C)C (mixture of isomers) | > 50 | > 50 | > 50
10 | > 200 | 35 | > 50 | > 50 | > 50 | 23 | – | – | 200 | CC[C@H](Nc1nc(NCc2ccccn2)c2ncn(C(C)C)c2n1)C(O)C(C)C (mixture of isomers) | > 50 | > 50 | > 50
11 | > 200 | 21 | 23 | 29 | > 50 | 85 | – | – | – | CCC(O)[C@H](CC)Nc1nc(NCc2ccccn2)c2ncn(C(C)C)c2n1 (mixture of isomers) | 33 | > 50 | 26
12 | > 200 | 22 | 40 | 29 | > 50 | 88 | – | – | – | CCC(O)[C@@H](CC)Nc1nc(NCc2ccccn2)c2ncn(C(C)C)c2n1 (mixture of isomers) | 27 | 45 | 26
